Laboratory results: ChEMBL document CHEMBL3885861, “Open TG-GATES”

Species: Rattus norvegicus
Assay: Open TG-GATES - Regimen: Daily Repeat
Type: toxicity, organism-based, Sprague-Dawley
Design: regimen Daily Repeat, gender Male, age 6 weeks
Conditions: in vivo, po, route gavage; for APTT / Bas / Eos / Fbg / Hb / Ht / Lym / MCH / MCHC / MCV / Mono / Neu / PT / Plat / RBC / Ret / WBC: tissue Blood; for KIDNEY_L / KIDNEY_R / KIDNEY_TOTAL: tissue Kidney; for LIVER: tissue Liver; for A/G / ALP / ALT / AST / BUN / CRE / Ca / Cl / DBIL / GLC / IP / LDH / Na / PL / RALB / TBIL / TC / TG / TP / gamma-GTP: tissue Plasma
[1] = 300 mg/kg, 72 h, dose level Middle, time 3 day
[2] = 300 mg/kg, […], dose level Middle, time 7 day
[3] = 300 mg/kg, […], dose level Middle, time 14 day
[4] = 300 mg/kg, […], dose level Middle, time 28 day
[5] = 1000 mg/kg, 72 h, dose level High, time 3 day
[6] = 1000 mg/kg, […], dose level High, time 7 day
[7] = 1000 mg/kg, […], dose level High, time 14 day
[8] = 1000 mg/kg, […], dose level High, time 28 day

## NC(N)=Nc1nc(CSCCC(N)=NS(N)(=O)=O)cs1 [FAMOTIDINE]
[1]
  TERMINAL_BW: 225.8 g
  APTT: 21.2 s
  Bas: 0%
  Eos: 1%
  Fbg: 222 mg/dL
  Hb: 13.6 g/dL
  Ht: 37.4%
  Lym: 82%
  MCH: 23 pg
  MCHC: 36.3%
  MCV: 63.4 fL
  Mono: 2.6%
  Neu: 13.2%
  PT: 12 s
  Plat: 127.7 x10_4/uL
  RBC: 589.8 x10_4/ul
  Ret: 5.1%
  WBC: 106.3 x10_2/uL
  KIDNEY_L: 1 g
  KIDNEY_R: 1 g
  KIDNEY_TOTAL: 2 g
  LIVER: 10.4 g
  A/G: 1.7
  ALP: 998.8 IU/L
  ALT: 33.6 IU/L
  AST: 65 IU/L
  BUN: 14.4 mg/dL
  CRE: 0.4 mg/dL
  Ca: 10.9 mg/dL
  Cl: 102.6 meq/L
  DBIL: 0.082 mg/dL
  GLC: 186.2 mg/dL
  IP: 7.8 mg/dL
  LDH: 194.2 IU/L
  Na: 139.2 meq/L
  PL: 141.4 mg/dL
  RALB: 3.5 g/dL
  TBIL: 0.1 mg/dL
  TC: 76.2 mg/dL
  TG: 77.6 mg/dL
  TP: 5.6 g/dL
  gamma-GTP: 1.2 IU/L
[2]
  TERMINAL_BW: 261.1 g
  APTT: 20.3 s
  Bas: 0%
  Eos: 1%
  Fbg: 225 mg/dL
  Hb: 13.9 g/dL
  Ht: 38.8%
  Lym: 79.2%
  MCH: 22.1 pg
  MCHC: 35.8%
  MCV: 61.7 fL
  Mono: 2.2%
  Neu: 16%
  PT: 12 s
  Plat: 114.6 x10_4/uL
  RBC: 629.6 x10_4/ul
  Ret: 5.2%
  WBC: 85.9 x10_2/uL
  KIDNEY_L: 1.2 g
  KIDNEY_R: 1.1 g
  KIDNEY_TOTAL: 2.3 g
  LIVER: 12.6 g
  A/G: 1.5
  ALP: 921.4 IU/L
  ALT: 34.2 IU/L
  AST: 65.2 IU/L
  BUN: 15.6 mg/dL
  CRE: 0.4 mg/dL
  Ca: 10.8 mg/dL
  Cl: 103.4 meq/L
  DBIL: 0.092 mg/dL
  GLC: 192.8 mg/dL
  IP: 7.6 mg/dL
  LDH: 183.4 IU/L
  Na: 141.4 meq/L
  PL: 161 mg/dL
  RALB: 3.4 g/dL
  TBIL: 0.1 mg/dL
  TC: 83.8 mg/dL
  TG: 111.4 mg/dL
  TP: 5.7 g/dL
  gamma-GTP: 1.4 IU/L
[3]
  TERMINAL_BW: 316.2 g
  APTT: 19.7 s
  Bas: 0%
  Eos: 0.8%
  Fbg: 224 mg/dL
  Hb: 14.4 g/dL
  Ht: 42%
  Lym: 79%
  MCH: 20.9 pg
  MCHC: 34.3%
  MCV: 60.9 fL
  Mono: 2.8%
  Neu: 16%
  PT: 12.4 s
  Plat: 120.5 x10_4/uL
  RBC: 689.4 x10_4/ul
  Ret: 4.3%
  WBC: 117 x10_2/uL
  KIDNEY_L: 1.2 g
  KIDNEY_R: 1.2 g
  KIDNEY_TOTAL: 2.4 g
  LIVER: 13.4 g
  A/G: 1.6
  ALP: 907.6 IU/L
  ALT: 40.2 IU/L
  AST: 66 IU/L
  BUN: 16 mg/dL
  CRE: 0.5 mg/dL
  Ca: 10.6 mg/dL
  Cl: 103.2 meq/L
  DBIL: 0.1 mg/dL
  GLC: 208.2 mg/dL
  IP: 7.3 mg/dL
  LDH: 151.6 IU/L
  Na: 140.2 meq/L
  PL: 146.6 mg/dL
  RALB: 3.5 g/dL
  TBIL: 0.2 mg/dL
  TC: 76 mg/dL
  TG: 97.4 mg/dL
  TP: 5.7 g/dL
  gamma-GTP: 2.2 IU/L
[4]
  TERMINAL_BW: 394.2 g
  APTT: 20.2 s
  Bas: 0%
  Eos: 1.4%
  Fbg: 220.6 mg/dL
  Hb: 15.4 g/dL
  Ht: 43.3%
  Lym: 82.2%
  MCH: 20 pg
  MCHC: 35.4%
  MCV: 56.4 fL
  Mono: 1.6%
  Neu: 13.4%
  PT: 12.5 s
  Plat: 100.3 x10_4/uL
  RBC: 768.2 x10_4/ul
  Ret: 2.3%
  WBC: 116.4 x10_2/uL
  KIDNEY_L: 1.4 g
  KIDNEY_R: 1.4 g
  KIDNEY_TOTAL: 2.8 g
  LIVER: 14.9 g
  A/G: 1.3
  ALP: 609.6 IU/L
  ALT: 35.2 IU/L
  AST: 66.8 IU/L
  BUN: 16.6 mg/dL
  CRE: 0.5 mg/dL
  Ca: 10.4 mg/dL
  Cl: 103.4 meq/L
  DBIL: 0.072 mg/dL
  GLC: 217.8 mg/dL
  IP: 7 mg/dL
  LDH: 160.6 IU/L
  Na: 141 meq/L
  PL: 133 mg/dL
  RALB: 3.3 g/dL
  TBIL: 0.1 mg/dL
  TC: 68.6 mg/dL
  TG: 86.2 mg/dL
  TP: 5.9 g/dL
  gamma-GTP: 1 IU/L
[5]
  TERMINAL_BW: 226 g
  APTT: 19.5 s
  Bas: 0%
  Eos: 1%
  Fbg: 226.2 mg/dL
  Hb: 13.2 g/dL
  Ht: 36.9%
  Lym: 79%
  MCH: 21.9 pg
  MCHC: 36%
  MCV: 60.8 fL
  Mono: 2.6%
  Neu: 14.4%
  PT: 11.9 s
  Plat: 126.7 x10_4/uL
  RBC: 607 x10_4/ul
  Ret: 4.4%
  WBC: 84.8 x10_2/uL
  KIDNEY_L: 1 g
  KIDNEY_R: 1 g
  KIDNEY_TOTAL: 2 g
  LIVER: 10.4 g
  A/G: 1.5
  ALP: 917.2 IU/L
  ALT: 32.8 IU/L
  AST: 60.4 IU/L
  BUN: 15.4 mg/dL
  CRE: 0.4 mg/dL
  Ca: 10.8 mg/dL
  Cl: 104.2 meq/L
  DBIL: 0.088 mg/dL
  GLC: 179.4 mg/dL
  IP: 7.7 mg/dL
  LDH: 185.8 IU/L
  Na: 141.2 meq/L
  PL: 137.8 mg/dL
  RALB: 3.3 g/dL
  TBIL: 0.1 mg/dL
  TC: 77.6 mg/dL
  TG: 79.6 mg/dL
  TP: 5.5 g/dL
  gamma-GTP: 1 IU/L
[6]
  TERMINAL_BW: 262.1 g
  APTT: 21.5 s
  Bas: 0%
  Eos: 1.2%
  Fbg: 223.4 mg/dL
  Hb: 13.6 g/dL
  Ht: 38.2%
  Lym: 75%
  MCH: 21.5 pg
  MCHC: 35.5%
  MCV: 60.3 fL
  Mono: 2.8%
  Neu: 19.6%
  PT: 12.1 s
  Plat: 122.6 x10_4/uL
  RBC: 634.4 x10_4/ul
  Ret: 5.5%
  WBC: 107.5 x10_2/uL
  KIDNEY_L: 1.2 g
  KIDNEY_R: 1.2 g
  KIDNEY_TOTAL: 2.4 g
  LIVER: 12.2 g
  A/G: 1.5
  ALP: 987.2 IU/L
  ALT: 36.6 IU/L
  AST: 69.8 IU/L
  BUN: 14.6 mg/dL
  CRE: 0.4 mg/dL
  Ca: 10.8 mg/dL
  Cl: 103.6 meq/L
  DBIL: 0.088 mg/dL
  GLC: 183.6 mg/dL
  IP: 7.3 mg/dL
  LDH: 184 IU/L
  Na: 140.8 meq/L
  PL: 147.6 mg/dL
  RALB: 3.4 g/dL
  TBIL: 0.1 mg/dL
  TC: 79 mg/dL
  TG: 69.4 mg/dL
  TP: 5.6 g/dL
  gamma-GTP: 1 IU/L
[7]
  TERMINAL_BW: 322.6 g
  APTT: 23.4 s
  Bas: 0%
  Eos: 0.8%
  Fbg: 228 mg/dL
  Hb: 13.9 g/dL
  Ht: 40.7%
  Lym: 76.8%
  MCH: 21.2 pg
  MCHC: 34.2%
  MCV: 62 fL
  Mono: 2.2%
  Neu: 18.6%
  PT: 12.5 s
  Plat: 117.7 x10_4/uL
  RBC: 656.2 x10_4/ul
  Ret: 4.8%
  WBC: 111.7 x10_2/uL
  KIDNEY_L: 1.3 g
  KIDNEY_R: 1.3 g
  KIDNEY_TOTAL: 2.6 g
  LIVER: 14 g
  A/G: 1.5
  ALP: 838 IU/L
  ALT: 36.6 IU/L
  AST: 64.6 IU/L
  BUN: 16.4 mg/dL
  CRE: 0.5 mg/dL
  Ca: 10.8 mg/dL
  Cl: 103.4 meq/L
  DBIL: 0.078 mg/dL
  GLC: 196.6 mg/dL
  IP: 7.4 mg/dL
  LDH: 162 IU/L
  Na: 140.6 meq/L
  PL: 134.8 mg/dL
  RALB: 3.6 g/dL
  TBIL: 0.1 mg/dL
  TC: 72.4 mg/dL
  TG: 66.8 mg/dL
  TP: 5.9 g/dL
  gamma-GTP: 1.6 IU/L
[8]
  TERMINAL_BW: 376.8 g
  APTT: 21.5 s
  Bas: 0%
  Eos: 1.2%
  Fbg: 222.2 mg/dL
  Hb: 15.7 g/dL
  Ht: 44.1%
  Lym: 84.8%
  MCH: 19.7 pg
  MCHC: 35.6%
  MCV: 55.4 fL
  Mono: 1.4%
  Neu: 11%
  PT: 12.5 s
  Plat: 100.2 x10_4/uL
  RBC: 796.6 x10_4/ul
  Ret: 1.9%
  WBC: 114.1 x10_2/uL
  KIDNEY_L: 1.3 g
  KIDNEY_R: 1.3 g
  KIDNEY_TOTAL: 2.7 g
  LIVER: 14.6 g
  A/G: 1.3
  ALP: 722.6 IU/L
  ALT: 36.2 IU/L
  AST: 62.4 IU/L
  BUN: 17.4 mg/dL
  CRE: 0.6 mg/dL
  Ca: 10.3 mg/dL
  Cl: 102.8 meq/L
  DBIL: 0.076 mg/dL
  GLC: 220 mg/dL
  IP: 7 mg/dL
  LDH: 132.6 IU/L
  Na: 141.6 meq/L
  PL: 121.2 mg/dL
  RALB: 3.4 g/dL
  TBIL: 0.1 mg/dL
  TC: 62.4 mg/dL
  TG: 72.2 mg/dL
  TP: 6 g/dL
  gamma-GTP: 1.4 IU/L
